Experiments:
[1] = Metal selectivity assay (fluorescence response to various metal ions); format: binding; conditions: 20 mM HEPES, pH 7
Method: Millipore water was used to prepare all aqueous solutions. All spectroscopic measurements were performed in 20 mM HEPES buffer, pH 7.0. Absorption spectra were recorded on a Varian Cary 50 spectrophotometer (Walnut Creek, Calif.) and fluorescence spectra were recorded on a Photo Technology International Quanta Master 4 L-format scan spectrofluorometer (Lawrenceville, N.J.) equipped with an LPS-220B 75-W xenon lamp and power supply, A-1010B lamp housing with integrated igniter, switchable 814 photocounting/analog photomultiplier detection unit, and MD5020 motor driver. Samples for absorption and emission measurements were contained in 1-cm×1-cm quartz cuvettes (1.4-mL volume, Starna, Atascadero, Calif.). Metals used in the selectivity assay were derived from their chloride salts or nitrate salts. The binding affinity of Cu^+ to the dyes was measured using thiourea as a competitive ligand to provide a buffered Cu^+ solution. […] The apparent dissociation constant (Kd) was determined using the following equation: (F−Fmin)/(Fmax−Fmin)=[Cu^+]/(Kd+[Cu^+]), where F is the observed fluorescence; Fmax is the fluorescence for the Cu^+:dye complex; Fmin is the fluorescence for the dye; and [Cu^+] is the ‘free’ Cu^+ available for complexation, which was calculated using the stability constants for thiourea and standard competition equilibrium expressions.

HEK293 cells = assay: Flow cytometry and confocal live-cell imaging of intracellular Cu^+; format: cell-based, Human; conditions: HEK293 cells loaded with 100 μM copper chloride, with or without copper chelator
Method: Cells were grown in the Tissue Culture Facility at the University of California, Berkeley with expert technical assistance from Ann Fischer and Michelle Yasukawa. HEK (Human Embryonic Kidney) 293T cells were cultured in Dulbecco's Modified Eagle Medium (DMEM, Invitrogen, Carlsbad, Calif.) supplemented with 10% Fetal Bovine Serum (FBS, Invitrogen, Carlsbad, Calif.) and glutamine (2 mM). Two days before imaging, cells were passed and plated on 12-mm glass coverslips coated with poly-L-lysine ([…], Sigma, St. Louis, Mo.). For all experiments, solutions of dyes (from 5 mM stocks in DMSO) were made in Dulbecco's Phosphate buffered saline (DPBS, GIBCO) without calcium chloride, magnesium chloride, magnesium sulfate, sodium bicarbonate, or phenol red. For copper treatment, HEK 293T cells were cultured as described above. One day prior to imaging, 100 μM CuCl2 was added to cells from a 100 mM aqueous stock solution. Cells were then incubated at 37° C., 5% CO2. After 10-12 hours, the media was exchanged for DPBS. Flowcytometry were performed with LSRFortessaTM cell analyzer (BD Biosciences) equipping 640 nm red laser and PE-Cy7 band pass filter. Cells were prepared as described above, and then 3-5 μM CS788 or […] […] Confocal fluorescence images were acquired at the Molecular Imaging Center at the University of California, Berkeley. […]

[2] = Spectroscopic fluorescence response to Cu(I) and its pH dependency in HEPES buffer; format: physicochemical; conditions: for fluorescence response to Cu(I): 20 mM HEPES, pH 7; for sensitivity of fluorescence to pH changes: physiological pH range
Method: Millipore water was used to prepare all aqueous solutions. All spectroscopic measurements were performed in 20 mM HEPES buffer, pH 7.0. Absorption spectra were recorded on a Varian Cary 50 spectrophotometer (Walnut Creek, Calif.) and fluorescence spectra were recorded on a Photo Technology International Quanta Master 4 L-format scan spectrofluorometer (Lawrenceville, N.J.) equipped with an LPS-220B 75-W xenon lamp and power supply, A-1010B lamp housing with integrated igniter, switchable 814 photocounting/analog photomultiplier detection unit, and MD5020 motor driver. Samples for absorption and emission measurements were contained in 1-cm×1-cm quartz cuvettes (1.4-mL volume, Starna, Atascadero, Calif.). Metals used in the selectivity assay were derived from their chloride salts or nitrate salts. The binding affinity of Cu^+ to the dyes was measured using thiourea as a competitive ligand to provide a buffered Cu^+ solution. Briefly, a 1-2 μM solution of dye was made in 20 mM HEPES, pH 7.0 and buffered with a known concentration of thiourea from a 500 mM stock in MilliQ H2O. Cu(I) was delivered in the form of [Cu(MeCN)4][PF6] from an acetonitrile stock solution (2 or 10 mM). The maximum acetonitrile concentration was 0.1%; this concentration of acetonitrile is not high enough to effectively compete with the dyes for Cu^+. Stability constants for thiourea binding were taken from the literature: β12=2.0×10^12, β13=2.0×10^14, β14=3.4×10^15. Martell, A. E.; Smith, R. M. Critical Stability Constants; Plenum Press: New York, 1989. The apparent dissociation constant (Kd) was determined using the following equation: (F−Fmin)/(Fmax−Fmin)=[Cu^+]/(Kd+[Cu^+]), where F is the observed fluorescence; Fmax is the fluorescence for the Cu^+:dye complex; Fmin is the fluorescence for the dye; and [Cu^+] is the ‘free’ Cu^+ available for complexation, which was calculated using the stability constants for thiourea and standard competition equilibrium expressions.

SKH1 mice = assay: Fluorescence imaging experiments in living mice; format: in vivo; conditions: for detection of endogenous levels of copper in mice: fluorescence imaging in mice; for detection of changes in copper levels in living mice: mice injected i.p. with copper chloride, copper chelator (ATN-224) or both, then dye
Method: Fluorescence images of mice were acquired using a Xenogen IVIS Spectrum instrument. SKH1 mice were obtained from Charles River Labs. Mice were single or group-housed on a 12:12 light-dark cycle at 22° C. with free access to food and water. SKH1 mice, aged 5-10 weeks, were anesthetized with isoflurane and injected with 1) DPBS (i.p., 100 μL), 2) CuCl2 (i.p., 5 mg/kg in 50 μL of DPBS) and DBPS (i.p., 50 μL), 3) CuCl2 (i.p., 5 mg/kg in 50 μL of DPBS) and ATN-224 (i.p., 5 mg/kg in 50 μL of DPBS), or 4) ATN-224 (i.p., 5 mg/kg in 50 μL of DPBS) and DBPS (i.p., 50 μL). 0-24 hours later, the mice were anesthetized with isoflurane and injected (i.p.) with DPBS (50 μL) or a dye (0.1 mM, 50 μL) and imaged immediately or up to 10 days later. All animal studies were approved and performed according to the guidelines of the Animal Care and Use Committee of the University of California, Berkeley.

Row | SMILES | selectivity for Cu(I) over other transition metals, alkali metals and alkali earth metals [1] | detection of copper level changes in living cells (HEK293 cells) | fluorescence response to Cu(I) [2] | sensitivity of fluorescence to pH changes [2] | detection of endogenous levels of copper in mice (SKH1 mice) | detection of changes in copper levels in living mice (SKH1 mice) | changes in integrated fluorescence from individual mice (SKH1 mice; two-tailed Student's t-test, P<0.05, n=3, except the change between CS790AM and copper, ATN-244, and CS790AM)
1 | CCCN1/C(=C/C=C2\CCCC(/C=C/C3=[N+](CCC)c4ccccc4C3(C)C)=C2Oc2ccc(N(CCSCCSCC)CCSCCSCC)cc2)C(C)(C)c2ccccc21.[I-] [CS788] | bind selectively to Cu(I) | increased fluorescence in cells loaded with copper chloride | large fluorescence increase | insensitive to pH changes | able to detect endogenous levels of copper | can detect changes in copper levels in mice | –
2 | CSCCCNc1ccc(OC2=C(/C=C/C3=[N+](CCC(=O)OCOC(C)=O)c4ccccc4C3(C)C)CCC/C2=C\C=C2\N(CCC(=O)OCOC(C)=O)c3ccccc3C2(C)C)cc1SCCCSC.[Br-] [CS790AM] | bind selectively to Cu(I) | increased fluorescence in cells loaded with copper chloride | large fluorescence increase | insensitive to pH changes | able to detect endogenous levels of copper | can detect changes in copper levels in mice | statistically significant

— patent publication US8865914B2, “Fluorescent probes for detection of copper” (The Regents of the University of California, priority 2012, dated 2014)
